Broadly, the IC50 is the concentration at which inhibition is half-maximal. In general, GI50 refers to the concentration giving 50% growth inhibition.

The structures appear in SMILES notation.

The target in experiment [1] is T1, Protein deacetylase HDAC6 (Homo sapiens, UniProt Q9UBN7).
T1 sequence (Q9UBN7 whole entry): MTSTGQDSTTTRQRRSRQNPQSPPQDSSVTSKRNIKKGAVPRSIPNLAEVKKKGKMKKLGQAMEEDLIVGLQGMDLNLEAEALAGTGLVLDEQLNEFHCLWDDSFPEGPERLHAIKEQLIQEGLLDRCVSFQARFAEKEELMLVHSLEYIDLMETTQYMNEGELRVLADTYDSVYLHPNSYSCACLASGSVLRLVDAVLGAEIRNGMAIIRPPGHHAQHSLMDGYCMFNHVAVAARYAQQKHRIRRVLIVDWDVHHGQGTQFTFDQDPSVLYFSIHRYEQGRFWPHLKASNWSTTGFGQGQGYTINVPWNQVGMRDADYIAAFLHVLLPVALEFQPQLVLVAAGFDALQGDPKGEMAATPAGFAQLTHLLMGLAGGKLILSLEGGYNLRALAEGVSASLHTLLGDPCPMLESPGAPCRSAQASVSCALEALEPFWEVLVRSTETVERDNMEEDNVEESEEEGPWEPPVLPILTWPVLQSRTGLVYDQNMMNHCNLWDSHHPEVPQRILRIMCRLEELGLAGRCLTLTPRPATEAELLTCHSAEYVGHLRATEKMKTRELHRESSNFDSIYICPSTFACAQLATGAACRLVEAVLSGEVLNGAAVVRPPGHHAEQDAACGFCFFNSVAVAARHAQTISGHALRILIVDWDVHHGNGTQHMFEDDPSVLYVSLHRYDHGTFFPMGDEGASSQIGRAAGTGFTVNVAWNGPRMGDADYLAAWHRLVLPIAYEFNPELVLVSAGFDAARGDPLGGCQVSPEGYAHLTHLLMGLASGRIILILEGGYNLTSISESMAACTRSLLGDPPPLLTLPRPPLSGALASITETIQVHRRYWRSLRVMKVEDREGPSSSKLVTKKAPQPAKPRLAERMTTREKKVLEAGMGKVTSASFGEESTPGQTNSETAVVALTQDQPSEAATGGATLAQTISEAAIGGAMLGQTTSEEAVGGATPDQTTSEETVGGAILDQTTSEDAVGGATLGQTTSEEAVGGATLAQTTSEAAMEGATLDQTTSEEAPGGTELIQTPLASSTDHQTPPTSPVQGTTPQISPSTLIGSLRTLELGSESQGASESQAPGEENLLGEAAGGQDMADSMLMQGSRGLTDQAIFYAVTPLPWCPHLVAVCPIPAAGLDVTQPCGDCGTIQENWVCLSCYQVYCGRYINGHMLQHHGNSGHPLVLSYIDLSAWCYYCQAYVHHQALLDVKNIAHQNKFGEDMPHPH
The experiment is described as follows: Inhibition of recombinant human HDAC6 expressed in baculovirus infected sf9 cells using fluor-de-Lys-SIRT1 as substrate by fluorescence method.

The subject of experiment [2] is HCT-116. The experiment is described as follows: Antitumor activity against human HCT116 cells xenografted in BALB/c athymic nude mouse assessed as tumor growth inhibition at 20 mg/kg administered twice daily for 14 days and measuring daily during compound dosing relative to control. The experiment is classed as functional. To be noted: HCT-116, 336 h, time 14 day, read-out: TGI. A general note: Xenograft models place foreign cells or tissue in a host animal.

The target of experiment [3] is T2, Histone deacetylase 1 (Homo sapiens, UniProt Q13547). Description: Inhibition of HDAC1 (unknown origin) using (AMC)-labelled p53 peptide( 379 to 382 residues) RHKKAc as substrate.
T2 sequence (Q13547 whole entry, the tested form may be a part): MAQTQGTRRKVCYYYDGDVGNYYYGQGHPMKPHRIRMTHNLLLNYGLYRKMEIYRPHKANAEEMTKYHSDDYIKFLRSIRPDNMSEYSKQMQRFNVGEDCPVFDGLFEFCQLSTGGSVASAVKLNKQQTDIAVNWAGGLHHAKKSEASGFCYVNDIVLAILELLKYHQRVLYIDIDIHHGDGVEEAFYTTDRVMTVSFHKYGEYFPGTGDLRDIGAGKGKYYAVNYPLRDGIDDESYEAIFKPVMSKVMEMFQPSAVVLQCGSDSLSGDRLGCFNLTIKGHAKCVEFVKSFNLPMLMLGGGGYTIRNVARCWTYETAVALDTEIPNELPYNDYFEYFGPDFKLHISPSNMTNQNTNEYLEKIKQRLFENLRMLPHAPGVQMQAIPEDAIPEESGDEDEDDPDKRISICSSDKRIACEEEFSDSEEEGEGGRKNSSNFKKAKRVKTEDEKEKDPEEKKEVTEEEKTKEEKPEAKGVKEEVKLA
In experiment [4] the test system is KMS-11. Description: Antiproliferative activity against human KMS-11 cells incubated for 72 hrs by sulphorhodamine B assay. The experiment is classed as functional. A general note: In SRB staining, fixed cells bind dye roughly in proportion to their protein.
In experiment [5] the target is T1, Protein deacetylase HDAC6. Description: Inhibition of HDAC6 (unknown origin) using (AMC)-labelled p53 peptide( 379 to 382 residues) RHKKAc as substrate.
For experiment [6], the system named is SH-SY5Y. The experiment is described as follows: Antiproliferative activity against human SH-SY5Y cells incubated for 72 hrs by sulphorhodamine B assay. The experiment is classed as functional, cell-based.
For experiment [7], the target named is T1, Protein deacetylase HDAC6. Description: Inhibition of HDAC6 (unknown origin).
In experiment [8] the target is T3, Histone deacetylase 2 (Homo sapiens, UniProt Q92769). The experiment is described as follows: Inhibition of HDAC2 (unknown origin).
T3 sequence (Q92769 whole entry): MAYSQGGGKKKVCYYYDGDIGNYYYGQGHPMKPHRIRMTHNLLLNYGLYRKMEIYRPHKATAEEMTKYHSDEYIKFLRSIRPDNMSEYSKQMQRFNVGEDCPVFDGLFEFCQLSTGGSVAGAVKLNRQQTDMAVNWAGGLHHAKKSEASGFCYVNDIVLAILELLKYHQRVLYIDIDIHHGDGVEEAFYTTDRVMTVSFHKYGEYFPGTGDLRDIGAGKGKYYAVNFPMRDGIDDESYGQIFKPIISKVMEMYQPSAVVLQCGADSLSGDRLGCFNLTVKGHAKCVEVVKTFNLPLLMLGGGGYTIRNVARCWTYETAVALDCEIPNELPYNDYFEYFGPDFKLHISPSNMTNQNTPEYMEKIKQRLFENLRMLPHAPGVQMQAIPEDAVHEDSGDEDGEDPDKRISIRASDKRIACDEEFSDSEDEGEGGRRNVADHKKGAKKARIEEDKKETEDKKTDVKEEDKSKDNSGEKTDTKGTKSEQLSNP
The target in experiment [9] is Histone deacetylase 4 (Homo sapiens, UniProt P56524). The experiment is described as follows: Inhibition of HDAC4 (unknown origin).
Sequence of Histone deacetylase 4 (P56524 whole entry): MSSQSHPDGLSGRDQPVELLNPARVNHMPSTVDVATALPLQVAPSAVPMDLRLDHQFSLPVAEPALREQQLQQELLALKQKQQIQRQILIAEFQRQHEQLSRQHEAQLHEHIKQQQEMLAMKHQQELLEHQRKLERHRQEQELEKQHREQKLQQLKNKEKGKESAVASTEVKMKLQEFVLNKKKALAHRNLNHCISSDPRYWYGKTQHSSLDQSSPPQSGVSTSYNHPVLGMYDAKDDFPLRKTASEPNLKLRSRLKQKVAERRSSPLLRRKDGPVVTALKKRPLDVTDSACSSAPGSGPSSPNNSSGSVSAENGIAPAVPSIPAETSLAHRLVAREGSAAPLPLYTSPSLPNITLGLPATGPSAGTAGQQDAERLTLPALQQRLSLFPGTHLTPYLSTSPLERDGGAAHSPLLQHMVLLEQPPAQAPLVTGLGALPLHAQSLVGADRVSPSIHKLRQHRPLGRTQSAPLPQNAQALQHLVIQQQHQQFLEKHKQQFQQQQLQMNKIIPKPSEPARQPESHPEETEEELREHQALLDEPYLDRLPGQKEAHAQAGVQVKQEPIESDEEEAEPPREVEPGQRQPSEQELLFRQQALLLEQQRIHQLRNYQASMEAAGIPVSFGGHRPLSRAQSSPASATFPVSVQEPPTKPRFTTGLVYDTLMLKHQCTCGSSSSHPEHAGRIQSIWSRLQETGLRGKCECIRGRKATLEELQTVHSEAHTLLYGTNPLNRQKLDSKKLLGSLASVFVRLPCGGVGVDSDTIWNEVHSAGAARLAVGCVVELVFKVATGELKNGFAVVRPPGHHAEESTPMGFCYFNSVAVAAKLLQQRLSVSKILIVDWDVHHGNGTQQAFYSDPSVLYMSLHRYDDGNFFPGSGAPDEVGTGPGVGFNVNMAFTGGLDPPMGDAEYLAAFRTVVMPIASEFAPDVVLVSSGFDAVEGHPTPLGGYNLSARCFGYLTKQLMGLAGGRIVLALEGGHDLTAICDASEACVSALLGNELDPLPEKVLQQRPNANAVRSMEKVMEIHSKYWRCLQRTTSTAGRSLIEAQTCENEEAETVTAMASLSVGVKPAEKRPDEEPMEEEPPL
Experiment [10] concerns the target T4, Polyamine deacetylase HDAC10 (Homo sapiens, UniProt Q969S8).
T4 sequence (Q969S8 whole entry): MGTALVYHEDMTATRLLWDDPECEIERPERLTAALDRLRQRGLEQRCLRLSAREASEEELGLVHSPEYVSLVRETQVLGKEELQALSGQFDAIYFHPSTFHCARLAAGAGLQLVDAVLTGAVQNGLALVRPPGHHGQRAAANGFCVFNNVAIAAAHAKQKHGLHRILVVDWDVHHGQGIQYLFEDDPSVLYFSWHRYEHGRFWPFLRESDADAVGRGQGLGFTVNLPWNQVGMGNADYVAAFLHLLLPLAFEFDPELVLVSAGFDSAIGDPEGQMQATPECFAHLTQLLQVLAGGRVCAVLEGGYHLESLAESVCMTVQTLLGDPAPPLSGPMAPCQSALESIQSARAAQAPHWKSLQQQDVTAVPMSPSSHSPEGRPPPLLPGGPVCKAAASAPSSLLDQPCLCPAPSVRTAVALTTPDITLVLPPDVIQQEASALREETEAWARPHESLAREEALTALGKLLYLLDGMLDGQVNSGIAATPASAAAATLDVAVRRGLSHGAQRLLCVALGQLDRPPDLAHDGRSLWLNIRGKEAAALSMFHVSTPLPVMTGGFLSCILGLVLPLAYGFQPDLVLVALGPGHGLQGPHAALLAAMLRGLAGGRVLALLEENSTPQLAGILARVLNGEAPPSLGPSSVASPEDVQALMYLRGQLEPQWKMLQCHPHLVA
The experiment is described as follows: Inhibition of HDAC10 (unknown origin).

In experiment [11] the target is Histone deacetylase 8 (Homo sapiens, UniProt Q9BY41). The experiment is described as follows: Inhibition of HDAC8 (unknown origin).
Sequence of Histone deacetylase 8 (Q9BY41 whole entry): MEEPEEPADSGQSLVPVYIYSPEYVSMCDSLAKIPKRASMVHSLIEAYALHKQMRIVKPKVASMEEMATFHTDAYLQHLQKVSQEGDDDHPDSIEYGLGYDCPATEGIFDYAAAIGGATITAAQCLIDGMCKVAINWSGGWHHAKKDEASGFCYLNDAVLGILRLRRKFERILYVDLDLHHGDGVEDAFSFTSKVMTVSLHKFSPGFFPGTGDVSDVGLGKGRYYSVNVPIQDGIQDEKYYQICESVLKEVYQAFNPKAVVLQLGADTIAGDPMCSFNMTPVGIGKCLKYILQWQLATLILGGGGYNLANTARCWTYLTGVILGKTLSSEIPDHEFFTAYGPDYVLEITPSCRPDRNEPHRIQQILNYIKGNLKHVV
In experiment [12] the target is Histone deacetylase 9 (Homo sapiens, UniProt Q9UKV0). Description: Inhibition of HDAC9 (unknown origin).
Sequence of Histone deacetylase 9 (Q9UKV0 whole entry): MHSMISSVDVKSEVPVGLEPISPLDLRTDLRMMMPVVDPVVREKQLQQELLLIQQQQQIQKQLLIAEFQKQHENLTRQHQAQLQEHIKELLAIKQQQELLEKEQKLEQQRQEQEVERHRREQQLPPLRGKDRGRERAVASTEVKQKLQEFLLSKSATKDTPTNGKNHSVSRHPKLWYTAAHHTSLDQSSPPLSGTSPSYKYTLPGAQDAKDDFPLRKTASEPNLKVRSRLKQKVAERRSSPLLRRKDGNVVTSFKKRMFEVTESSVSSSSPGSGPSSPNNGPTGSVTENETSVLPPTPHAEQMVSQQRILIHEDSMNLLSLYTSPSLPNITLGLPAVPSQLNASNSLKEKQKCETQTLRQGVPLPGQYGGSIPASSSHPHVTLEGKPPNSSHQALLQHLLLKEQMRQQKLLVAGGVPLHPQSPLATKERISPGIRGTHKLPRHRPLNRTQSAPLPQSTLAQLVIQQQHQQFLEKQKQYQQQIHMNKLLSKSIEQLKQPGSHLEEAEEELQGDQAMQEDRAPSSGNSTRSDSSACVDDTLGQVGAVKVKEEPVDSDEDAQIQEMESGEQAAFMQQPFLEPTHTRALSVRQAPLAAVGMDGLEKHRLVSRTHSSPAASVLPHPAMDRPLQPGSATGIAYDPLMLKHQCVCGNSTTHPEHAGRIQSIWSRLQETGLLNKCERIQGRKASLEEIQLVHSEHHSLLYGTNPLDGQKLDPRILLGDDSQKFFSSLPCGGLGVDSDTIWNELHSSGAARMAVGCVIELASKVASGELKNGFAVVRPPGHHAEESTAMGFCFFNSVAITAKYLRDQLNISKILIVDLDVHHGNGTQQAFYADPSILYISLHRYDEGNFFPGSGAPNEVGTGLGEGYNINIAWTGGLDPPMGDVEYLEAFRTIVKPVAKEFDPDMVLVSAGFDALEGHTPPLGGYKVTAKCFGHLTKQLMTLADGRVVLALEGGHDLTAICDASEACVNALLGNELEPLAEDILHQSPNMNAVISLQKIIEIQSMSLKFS
The target of experiment [13] is T2, Histone deacetylase 1. The experiment is described as follows: Inhibition of HDAC1 (unknown origin).
The target of experiment [14] is Histone deacetylase 5 (Homo sapiens, UniProt Q9UQL6). The experiment is described as follows: Inhibition of HDAC5 (unknown origin).
Experiment [15] has as its target Histone deacetylase 11 (Homo sapiens, UniProt Q96DB2). The experiment is described as follows: Inhibition of HDAC11 (unknown origin).
The target of experiment [16] is Histone deacetylase 3 (Homo sapiens, UniProt O15379). The experiment is described as follows: Inhibition of HDAC3 (unknown origin).
Sequence of Histone deacetylase 3 (O15379 whole entry, the tested form may be a part): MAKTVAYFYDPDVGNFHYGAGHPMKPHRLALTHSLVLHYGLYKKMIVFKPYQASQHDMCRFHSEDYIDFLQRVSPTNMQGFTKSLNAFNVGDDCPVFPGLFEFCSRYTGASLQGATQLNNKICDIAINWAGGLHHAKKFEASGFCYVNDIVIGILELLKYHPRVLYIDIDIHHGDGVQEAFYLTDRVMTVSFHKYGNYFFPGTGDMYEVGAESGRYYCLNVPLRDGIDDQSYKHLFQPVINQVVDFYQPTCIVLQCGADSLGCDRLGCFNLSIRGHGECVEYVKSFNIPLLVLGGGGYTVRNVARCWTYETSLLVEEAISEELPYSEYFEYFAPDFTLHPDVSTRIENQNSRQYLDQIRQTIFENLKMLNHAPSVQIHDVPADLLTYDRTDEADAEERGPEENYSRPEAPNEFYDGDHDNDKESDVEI
The target in experiment [17] is T3, Histone deacetylase 2. Description: Inhibition of human HDAC2 using p53 fluorogenic peptide (379 to 382 residues) RHKKAc as substrate by fluorescence-based assay.
Experiment [18] has as its target T1, Protein deacetylase HDAC6. Description: Inhibition of human HDAC6 using p53 fluorogenic peptide (379 to 382 residues) RHKKAc as substrate by fluorescence-based assay.
The test system of experiment [19] is A2780. The experiment is described as follows: Antiproliferative activity against human A2780 cells by MTT assay. The experiment is classed as functional, cell-based. For orientation: Tetrazolium assays rely on reduction of a dye to a coloured formazan, in cell work by metabolically active cells.
The test system of experiment [20] is CAL-27. The experiment is described as follows: Antiproliferative activity against human Cal-27 cells by MTT assay. Format: functional, cell-based.
The species named for experiment [21] is Homo sapiens. Description: Selectivity ratio of IC50 for human HDAC1 to IC50 for human HDAC6.
The species entered for experiment [22] is Homo sapiens. Description: Selectivity ratio of IC50 for human HDAC2 to IC50 for human HDAC6.
The species named for experiment [23] is Homo sapiens. Description: Selectivity ratio of IC50 for human HDAC10 to IC50 for human HDAC6.
The species entered for experiment [24] is Homo sapiens. Description: Selectivity ratio of IC50 for human HDAC4 to IC50 for human HDAC6.
The species named for experiment [25] is Homo sapiens. Description: Selectivity ratio of IC50 for human HDAC3 to IC50 for human HDAC6.
The species entered for experiment [26] is Homo sapiens. The experiment is described as follows: Selectivity ratio of IC50 for human HDAC7 to IC50 for human HDAC6.
The species entered for experiment [27] is Homo sapiens. Description: Selectivity ratio of IC50 for human HDAC9 to IC50 for human HDAC6.
Experiment [28] is filed under the species Homo sapiens. The experiment is described as follows: Selectivity ratio of IC50 for human HDAC5 to IC50 for human HDAC6.
For experiment [29], the species on record is Homo sapiens. The experiment is described as follows: Selectivity ratio of IC50 for human HDAC8 to IC50 for human HDAC6.
For experiment [30], the species on record is Homo sapiens. Description: Selectivity ratio of IC50 for human HDAC11 to IC50 for human HDAC6.
The target of experiment [31] is T1, Protein deacetylase HDAC6. The experiment is described as follows: Inhibition of Flag-tagged HDAC6 (unknown origin) expressed in 293T cells using ZMAL as substrate incubated for 180 mins by fluorescence method. Also noted: species or system HEK293T.
Experiment [32] deals with HEK293T. The experiment is described as follows: Selectivity ratio of IC50 for Flag-tagged HDAC1 (unknown origin) expressed in 293T cells to IC50 for Flag-tagged HDAC6 (unknown origin) expressed in 293T cells. The experiment is classed as cell-based. To be noted: Homo sapiens.

Sequence of Histone deacetylase 11 (Q96DB2 whole entry): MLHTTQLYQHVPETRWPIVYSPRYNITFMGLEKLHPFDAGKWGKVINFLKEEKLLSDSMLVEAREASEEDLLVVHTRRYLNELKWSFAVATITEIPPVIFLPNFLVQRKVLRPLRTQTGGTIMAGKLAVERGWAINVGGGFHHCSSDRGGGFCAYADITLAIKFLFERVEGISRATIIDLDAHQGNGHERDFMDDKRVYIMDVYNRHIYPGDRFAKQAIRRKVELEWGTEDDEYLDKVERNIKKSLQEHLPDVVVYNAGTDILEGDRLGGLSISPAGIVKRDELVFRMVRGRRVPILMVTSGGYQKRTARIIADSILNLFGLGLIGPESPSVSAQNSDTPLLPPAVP

`COc1cc(C(=O)OCCCCCCCOC(=O)c2ccc(O)c(OC)c2)ccc1O`: the half-inhibitory concentration (IC50) in experiment [1] is 200 nM.
Consider `CC(/C=C/C(=O)NO)=C\c1ccc(NS(=O)(=O)c2ccc(N(CCCl)CCCl)cc2)cc1`, for which the inhibition in vivo at 20 mg/kg in [2] was determined as 78%. For the same compound, the figures for the IC50 in [3], in experiment [5] and in [6] were 14000 nM, 479 nM and 280 nM, respectively. The compound also had a GI50 in experiment [4] of 480 nM.
`O=C(NO)c1ccc(CN2c3ccccc3S(=O)(=O)C[C@@H]3CCCC[C@@H]32)cc1`: the IC50 in experiment [7] was 8 nM; in experiment [8], above 8000 nM; in [9], above 8000 nM; in [10] it was above 8000 nM; in [11], 1100 nM; in experiment [12], above 8000 nM. For the same compound, the IC50 was above 8000 nM in experiment [13], above 8000 nM in [14], 2400 nM in [15] and above 8000 nM in experiment [16].
Regarding `CN(C)c1ccc(C(=O)N(CC(=O)NC2CCCCC2)Cc2ccc(C(=O)NO)cc2)cc1`, the IC50 in [17] is 200 nM; in experiment [18], 1.59 nM; in experiment [19], 340 nM; in experiment [20], 2040 nM.
For the compound `Cc1nc2ccccc2n1Cc1ccc(C(=O)NO)cc1F`, in [21], the Ratio IC50 amounted to 1400.
`O=C(NO)c1ccc(NCc2csc3ccccc23)cc1`: the Ratio IC50 in experiment [22], in experiment [23], in experiment [24], in experiment [25], in experiment [26] and in [27] was above 100 throughout. The Ratio IC50 in experiment [28], in [21], in [29] and in experiment [30] was above 100 in each case.
In the case of `COC(=O)[C@@H](Cc1ccccn1)NC(=O)CCCCCCC(=O)NO`, in [31], the IC50 amounted to 4010 nM. For the same compound, in experiment [32], the Ratio IC50 is 20.

Source of the values: ChEMBL document CHEMBL4673207, “Recent advances in the discovery of potent and selective HDAC6 inhibitors” (Eur J Med Chem, 2018).
